Laboratory results published in patent EP0651751B1, “FAMILY OF PORPHIN RING SUBSTANCES, METHOD OF OBTAINING THEM FROM CYANOPHYCEAE, AND APPLICATIONS AS COSMETICS AND AS THERAPEUTIC PRODUCTS” (GENERALE DE PREVENTION ET DE LOISIRS, priority 1992, dated 1994).

Legend:
[1] = test system: collagène fibreux insoluble; test: Increase of the resistance of collagen to collagenase (agarose gel, diameter of hydrolysis zones); assay type: biochemical; conditions: product in the gel at 0,025 %; collagénase pancréatique 10 mg/ml (3800 U/ml), 15 h at 37°C, Tris pH 8,8
Protocol: * Accroissement de la résistance du collagène aux effets de la collagénase : - Mise en évidence : On répartit dans quatre boîtes de Pétri de 8 cm de diamètre 20 ml d'une solution à 1 % d'agarose dans du tampon Tris pH 8,8, contenant en suspension 20 mg de collagène fibreux insoluble et 0, 0,1, 0,3 et 0,5 ml d'une solution à 5 % de produit à tester selon les boîtes, soient des concentrations de 0, 0,025 %, 0,075 %, 0,125 %. Comme la plupart des produits à tester ne sont pas solubles dans le tampon, on part d'une solution mère dans du diméthylsulfoxyde (DMSO). Cette répartition se fait à 45°C. Après solidification de l'agarose, on perfore 5 puits de 3 mm de diamètre dans le gel grâce à un emporte-pièce. Dans ces 5 puits, on place 50 µl d'une solution de collagénase pancréatique dans du tampon Tris pH 8,8 à une concentration de 10 mg/ml (3800 U/ml). Les boîtes de Pétri sont incubées 15 heures à 37°C, puis le gel est coloré par une solution à 0,25 % d'acide picrique à 0,25 % pendant 3 min, puis une solution de Rouge Sirius à 0,1 % pendant 5 min. L'excès de coloration est éliminé par lavage à l'eau. - Résultats :
(§1) On évalue l'action enzymatique en mesurant le diamètre des zones d'hydrolyse du collagène fibreux. Le groupe chlorophylle-chlorophyllide est le plus actif, ce qui suggère que la présence de magnésium dans la structure a une grande importance. * Effet d'inhibition de la collagénase : - Mise en évidence : On répartit dans quatre boîtes de Pétri de 8 cm de diamètre 20 ml d'une solution à 1 % d'agarose dans du tampon Tris pH 8,8, contenant en suspension 20 mg de collagène fibreux insoluble. Cette répartition se fait à 45°C. Après solidification de l'agarose, on perfore 5 puits de 3 mm de diamètre dans le gel grâce à un emporte-pièce. Dans ces 5 puits, on place 25 µl d'une solution de collagénase pancréatique dans du tampon Tris pH 8,8 à des concentrations de : 10 mg/ml (3800 U/ml) et 25 µl d'une solution de la substance à tester dans le même tampon à une concentration de 4 %, 3 %, 2 %, 1 % et 0 %. Comme la plupart des produits à doser ne sont pas solubles dans le tampon, on part d'une solution mère dans du diméthylsulfoxyde. Les boîtes de Pétri sont incubées 15 heures à 37°C, puis le gel est coloré par une solution à 0,25 % d'acide picrique à 0,25 % pendant 3 min, puis une solution de Rouge Sirius à 0,1 % pendant 5 min. L'excès de coloration est éliminé par lavage à l'eau. - Résultats : […]

[2] = target: élastase pancréatique (Sus scrofa, UniProt P00772); test: Pancreatic elastase inhibition on synthetic substrate N succinyl N ala-ala-ala-p nitroanilide; assay type: biochemical; conditions: 0,5 ml of 0,1 % test solution in DMSO à 50 %, 3 ml total; pH 7,6; OD 410 nm over 3 min
Sequence of élastase pancréatique (P00772 27-266): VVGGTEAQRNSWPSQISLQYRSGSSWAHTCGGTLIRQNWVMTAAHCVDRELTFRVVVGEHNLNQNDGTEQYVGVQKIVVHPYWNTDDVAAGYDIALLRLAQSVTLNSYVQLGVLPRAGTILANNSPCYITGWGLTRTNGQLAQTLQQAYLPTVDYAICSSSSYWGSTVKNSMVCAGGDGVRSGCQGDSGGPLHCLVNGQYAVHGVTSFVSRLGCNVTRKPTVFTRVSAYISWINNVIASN
Excerpt: Dans ce test, les substances les plus performantes sont les mêmes que dans le test précédent (chlorophylle-chlorophyllide); de plus, ces substances présentent un effet de renforcement de la résistance du collagène contre les effets de la collagénase, alors que l'enzyme elle-même est peu atteinte par ces substances. * Inhibition de l'élastase pancréatique : - Mise en évidence : L'activité de l'élastase pancréatique est déterminée sur un substrat synthétique. On constate que les produits décrits ci-dessus ont un effet sur cette enzyme alors que le substrat est un dérivé de peptide de faible poids moléculaire : le N succinyl N ala-ala-ala-p nitroanilide. Solution substrat : solution du substrat ci-dessus à 1 % dans du tampon phosphate pH 7,6. Solution enzymatique : élastase pancréatique à (1000 U/ml) dans le tampon pH 7,6. Solvant DMSO à 50 % dans de l'eau distillée. Solution à tester : substance à tester en solution dans le solvant à 0,1 %. Dans un premier tube à essai (blanc), on place : • 2,2 ml de tampon pH 7,6 • 0,3 ml de solution enzymatique • 0,5 ml de solvant. Dans un deuxième tube à essai (essai), on place : • 1 ml de solution substrat • 1,2 ml de tampon pH 7,6 • 0,3 ml de solution enzymatique • 0,5 ml de solution à tester. Dans un troisième tube à essai, on place : • 1 ml de solution substrat • 1,2 ml de tampon pH 7,6 • 0,3 ml de solution enzymatique • 0,5 ml de solvant. On mesure la D.O. de la solution essai contre la solution blanc à 410 nm. On note la valeur toutes les 30 secondes pendant 3 minutes. On réalise la même mesure pour la solution témoin. L'activité de l'enzyme est définie par la vitesse d'augmentation de D.O. du témoin. L'activité de la solution inhibitrice à tester se définit comme une diminution relative de l'activité de l'enzyme. - Résultats : […]

[3] = Antiradical effect, chemical method (DPPH, OD 519 nm); conditions: 0,15 ml of 2 % solution in methanol; 25°C, 5 min; pH 7; toluene extraction
Protocol: Dans ce test, on constate une relative homogénéité des actions des différentes substances, contrairement aux tests précédents; ici, c'est donc la structure commune qui doit jouer le rôle principal dans cette action. - Mise en évidence par la méthode chimique : Réactif : 1,1-diphényl-2-picrylhydrazyle : 2,5 mg dans 100 ml de méthanol. Solvant des substances antiradicalaires : méthanol. Solution antiradicalaire : 2 % dans du méthanol. Ce produit est un radical libre stable pouvant être dégradé par des substances antiradicalaires. On réalise un blanc pour le témoin et un blanc pour l'essai : Blanc témoin : tampon phosphate pH 7 : 1,5 ml méthanol : 3 ml Témoin : solution réactif : 3 ml tampon phosphate pH 7 : 1,5 ml Blanc essai : tampon phosphate pH 7 : 1,35 ml méthanol : 3,15 ml Essai : solution réactif : 3 ml tampon phosphate pH 7 : 1,35 ml solution d'antiradicalaire : 0,15 ml. On agite à 25°C pendant 5 min. Puis on extrait par 4 ml de toluène pendant 30 secondes. On filtre sur un papier séparateur de phases et on lit la D.O. de la solution de toluène à 519 nm contre la solution de toluène obtenue pour le blanc correspondant. On calcule le pourcentage de réactif disparu. - Résultats : […]

[4] = test system: collagénase pancréatique; test: Collagenase inhibition (agarose gel diffusion, enzyme and substance together in the well); assay type: biochemical; conditions: 15 h at 37°C
Protocol: as §1

[5] = test system: fibroblastes humains MRC5; test: Total protein synthesis by fibroblasts in culture (Coomassie blue, OD 595 nm); assay type: cell-based; conditions: 100 µl per well, MRC5, 28th passage, medium sampled after 48, 72, 96 and 120 h (time not given); for activation at 50 µg/mL: Homo sapiens, read-out: augmentation de la synthèse protéique par rapport au témoin; for augmentation de la synthèse protéique par rapport au témoin: 50 µg/ml
Excerpt: Dans ce test, qui est un test relatif à une inhibition enzymatique vraie, puisque le substrat est artificiel et de structure assez éloignée des substrats naturels de l'enzyme, on constate que les molécules les plus actives en tant qu'inhibiteurs, sont celles dépourvues de radical phytile; la présence du magnésium n'apparaît pas comme essentielle, pour cette fonction particulière, d'où l'intérêt de compositions comprenant plusieurs des substances actives définies ci-dessus. * Effet des substances décrites sur la synthèse des protéines totales par des fibroblastes en culture (restructuration) : - Mise en évidence : Une étude de cytotoxicité est réalisée au préalable pour déterminer les concentrations maximales de test des différentes substances concernées. Cellules utilisées : fibroblastes humains MRC5, au 28ème passage. Les cellules sont ensemencées sur une plaque à 96 puits à raison de 2.10^5 cellules par puits environ et mises en culture dans du milieu minimum de Eagle (MEM) additionné de 1 % de glutamine 200 mM, 1 % de solution de vitamines, 100 U/ml de pénicilline, 100 U/ml de streptomycine et 2 % de sérum de veau foetal. La solution à tester est ajoutée à raison de 100 µl par puits, à la concentration de 50 µg/ml. Les cellules sont incubées à 37°C sous 5 % d'atmosphères de CO2. On prélève le milieu de culture après 48, 72, 96 et 120 heures de culture. Les protéines totales synthétisées sont déterminées après coloration des surnageants par le bleu de Coomassie et mesure de la D.O. à 595 nm. L'augmentation de la synthèse protéique est mesurée par rapport au témoin (solvant de la substance à tester). - Résultats : […]

[6] = 25 µl substance solution at 1 % with 25 µl collagénase 10 mg/ml in the well
[7] = 25 µl substance solution at 2 % with 25 µl collagénase 10 mg/ml in the well
[8] = 25 µl substance solution at 3 % with 25 µl collagénase 10 mg/ml in the well
[9] = 25 µl substance solution at 4 % with 25 µl collagénase 10 mg/ml in the well

Accroissement de la résistance du collagène aux effets de la collagénase [1] [%]	Inhibition de l'élastase pancréatique (diminution relative de l'activité de l'enzyme) [2] [%]	Effet d'inhibition de la collagénase [4, 6] [%]	Effet d'inhibition de la collagénase [4, 7] [%]	Effet d'inhibition de la collagénase [4, 8] [%]	Effet d'inhibition de la collagénase [4, 9] [%]	Molecule	pourcentage de réactif disparu (méthode chimique) [3] [%]	activation at 50 µg/mL [5] [%]	augmentation de la synthèse protéique par rapport au témoin [5] [%]
2	17	2	2	2	6	C=CC1=C(C)c2cc3[nH]c(c(CCC(=O)O)c3C)c3c4nc(cc5[nH]c(cc1n2)c(C)c5CC)C(C)=C4C(=O)C3C(=O)OC (centres unmarked) [Phaéophorbide a, didéhydrophaéophorbide a]	33	1	–
0	9	0	0	0	2	C=CC1=C(C)c2cc3[nH]c(c(CCC(=O)OCC=C(C)CCCC(C)CCCC(C)CCCC(C)C)c3C)c3c4nc(cc5[nH]c(cc1n2)c(C)c5CC)C(C)=C4C(=O)C3C(=O)OC (centres unmarked) [Phaéophytine a, didéhydrophaéophytine a]	20	4	–
5	12	2	3	3	4	didéhydrochlorophylle a	84	–	15
3	28	3	6	8	9	didéhydrochlorophyllide a	83	–	23
